Numbers after ± are expanded uncertainties.
Assay: Boiling temperature at pressure P
Details: 101.33 kPa; Liquid; Ebulliometric method (Recirculating still)

CO [methanol]
Boiling temperature at pressure P: 64.50 ± 0.1 °C

— the NIST ThermoML archive (doi:10.1016/j.jct.2013.12.021)
